“And” between values parts separate entries of the source, which are not always exact repeats. Identical values can stand only once. “Also recorded” adds a separate entry of the source. Like-named read-outs stand apart in the source and are kept apart here.
Experiments:
[1] = biological target: T1, BuChE from equine serum (EqBuChE) (Equus caballus, UniProt P81908); experiment: Inhibition of BuChE, modified Ellman's spectrophotometric method; format: biochemical; conditions: for Enhancement of BuChE inhibition compared to parent 3k: ratio of IC50 values vs parent 3k
T1 construct: butyrylcholinesterase was from an equine serum; purchased Sigma-Aldrich (Prague, Czech Republic); host or cells: equine serum (natural source)
Method: (§1) The IC50 values were determined using the spectrophotometric Ellman’s method modified according to Zdražilová et al., which is a simple, rapid and direct method to determine the SH and -S-S- group content in proteins. This method is widely used for the screening of the efficiency of cholinesterases inhibitors. The enzymatic activity is measured indirectly by quantifying the concentration of the 5-thio-2-nitrobenzoic acid ion formed in the reaction between the thiol reagent 5,5′-dithio-bis(2-nitrobenzoic acid) and thiocholine, a product of substrate hydrolysis (i.e., acetylthiocholine; ATCH) by cholinesterases.
(§2) The enzyme activity in final reaction mixture (2000 µL) was 0.2 U/mL, concentration of acetylthiocholine (or butyrylthiocholine, BTCH) 40 µM and concentration of 5,5′-dithio-bis(2-nitrobenzoic acid) 0.1 mM for all reactions. The tested compounds were dissolved in DMSO and then diluted in demineralized water to the concentration of 1 µM. […] All measurements were carried in triplicate and the average values of reaction rate (v0-uninhibited reaction, vi-inhibited reaction) were used for construction of the dependence v0/vi vs. concentration of inhibitor. From obtained equation of regression curve, the value of IC50 was calculated (based on the definition of IC50).
(§3) Acetylcholinesterase was obtained from electric eel (Electrophorus electricus L.) and butyrylcholinesterase was from an equine serum.
(§4) Thirty-six benzamides 1–4l were evaluated as potential inhibitors of AChE from electric eel (EeAChE) and BuChE from equine serum (EqBuChE) using Ellman’s spectrophotometric method modified according to Zdražilová et al.. Their efficacy is expressed as IC50, i.e., the concentration required for 50% inhibition of the enzymatic activity. Based on inhibition of both cholinesterases, we calculated selectivity indexes (SI) as the ratio of IC50 value for AChE/IC50 value for BuChE to express the selectivity quantitatively (Table 1).

[2] = biological target: T2, AChE from electric eel (EeAChE) (Electrophorus electricus, UniProt O42275); conditions: SI = IC50 for AChE/IC50 for BuChE; cited from earlier work
T2 construct: Acetylcholinesterase was obtained from electric eel (Electrophorus electricus L.); purchased Sigma-Aldrich (Prague, Czech Republic); host or cells: electric eel (natural source)

[3] = biological target: T1, BuChE from equine serum (EqBuChE); conditions: mean ± SD; cited from earlier work
[4] = biological target: T2, AChE from electric eel (EeAChE); experiment: Inhibition of AChE, modified Ellman's spectrophotometric method; format: biochemical, electric eel (Electrophorus electricus L.)
Method: as §1, §2, §3, §4

[5] = biological target: T3, acetylcholinesterase (Electrophorus electricus, UniProt O42275); experiment: Mechanism of inhibition, dependence log% A vs. time; format: biochemical, electric eel (Electrophorus electricus L.); conditions: inhibitor 10, 30, 90 µM; prolonged incubation
T3 construct: Acetylcholinesterase was obtained from electric eel (Electrophorus electricus L.); purchased Sigma-Aldrich (Prague, Czech Republic); host or cells: electric eel (natural source)
Method: (§5) The determination of mechanism of enzyme inhibition was described in detail previously. The inhibitor 5c was evaluated at three different concentrations for each enzyme.
(§6) Based on the changes of enzyme activity in the presence of tested inhibitor during prolonged incubation, it is possible to distinguish reversible, pseudo-irreversible and irreversible inhibition. In the case of reversible inhibition, the inhibitor is bound to the enzyme for a short period of time, the activity of the enzyme goes down immediately and, after dissociation of complex enzyme-inhibitor, the enzyme activity is restored. […] For irreversible inhibition, covalent and permanent bond between enzyme and inhibitor is typical and therefore the enzyme becomes inactivated. Irreversible inhibitor decreases enzyme activity successively and the dependence log% A vs. time in the presence of inhibitor is linear.
(§7) The procedure of measurement and data evaluation were in detail described previously in the reference. From the dependence log% A vs. time the mechanism of action of tested inhibitor can be deduced.
Figure 1 The dependence log% A vs. time. Enzyme: acetylcholinesterase, derivative 5c, concentration of inhibitor: 10 µM (rhomb), 30 µM (square), 90 µM (triangle).

[6] = biological target: T4, butyrylcholinesterase (Equus caballus, UniProt P81908); experiment: as above; format: biochemical, equine; conditions: inhibitor 3, 6, 9 µM; prolonged incubation
T4 construct: butyrylcholinesterase was from an equine serum; purchased Sigma-Aldrich (Prague, Czech Republic); host or cells: equine serum (natural source)
Method: as §5, §6, §7
Figure 2 The dependence log% A vs. time. Enzyme: butyrylcholinesterase, derivative 5c, concentration of inhibitor: 3 µM (rhomb), 6 µM (square), 9 µM (triangle).

[7] = biological target: T5, AChE (Electrophorus electricus, UniProt O42275); experiment: Type of inhibition, Lineweaver-Burk plot; format: biochemical, electric eel (Electrophorus electricus L.); conditions: ATCH 20–80 µM
T5 construct: Acetylcholinesterase was obtained from electric eel (Electrophorus electricus L.); purchased Sigma-Aldrich (Prague, Czech Republic); host or cells: electric eel (natural source)
Method: (§8) For the determination of the type of inhibition Lineweaver-Burk plot was used and the measuring procedure was similar to that for the determination of IC50 (modified Ellman’s method was used). The enzyme activity in the final reaction mixture (2000 µL) was 0.2 U/mL, a concentration of ATCH or BTCH 20–80 µM and a concentration of 5,5′-dithio-bis(2-nitrobenzoic acid) 0.1 mM. For each of the substrate concentrations, four different concentrations of inhibitor were chosen. The dependence absorbance vs. time was observed and the reaction rate was calculated. All measurements were carried in duplicate and the average values of reaction rate were used for the construction of the Lineweaver-Burk plot. From obtained equations of regression curves, the values of KM (Michaelis constant) and Vm (maximum velocity) were calculated and the type of inhibition was evaluated.
(§9) The type of inhibition could be distinguished based on the Lineweaver-Burk plot and the comparison of the kinetic parameters KM and Vm of uninhibited and inhibited reactions. The diagnostic criterion for competitive inhibition is that Vm is unaffected by inhibitor and KM for inhibited reaction is increased. All lines in Lineweaver-Burk plot share a common y-intercept. For non-competitive inhibitor KM is unchanged, but Vm of inhibited reaction is decreased. All lines in Lineweaver-Burk plot share a common x-intercept. […]

[8] = biological target: T6, BuChE (Equus caballus, UniProt P81908); experiment: Type of inhibition, Lineweaver-Burk plot; format: biochemical, equine; conditions: BTCH 20–80 µM
T6 construct: butyrylcholinesterase was from an equine serum; purchased Sigma-Aldrich (Prague, Czech Republic); host or cells: equine serum (natural source)
Method: as §8, §9

T2 sequence (O42275 24-633): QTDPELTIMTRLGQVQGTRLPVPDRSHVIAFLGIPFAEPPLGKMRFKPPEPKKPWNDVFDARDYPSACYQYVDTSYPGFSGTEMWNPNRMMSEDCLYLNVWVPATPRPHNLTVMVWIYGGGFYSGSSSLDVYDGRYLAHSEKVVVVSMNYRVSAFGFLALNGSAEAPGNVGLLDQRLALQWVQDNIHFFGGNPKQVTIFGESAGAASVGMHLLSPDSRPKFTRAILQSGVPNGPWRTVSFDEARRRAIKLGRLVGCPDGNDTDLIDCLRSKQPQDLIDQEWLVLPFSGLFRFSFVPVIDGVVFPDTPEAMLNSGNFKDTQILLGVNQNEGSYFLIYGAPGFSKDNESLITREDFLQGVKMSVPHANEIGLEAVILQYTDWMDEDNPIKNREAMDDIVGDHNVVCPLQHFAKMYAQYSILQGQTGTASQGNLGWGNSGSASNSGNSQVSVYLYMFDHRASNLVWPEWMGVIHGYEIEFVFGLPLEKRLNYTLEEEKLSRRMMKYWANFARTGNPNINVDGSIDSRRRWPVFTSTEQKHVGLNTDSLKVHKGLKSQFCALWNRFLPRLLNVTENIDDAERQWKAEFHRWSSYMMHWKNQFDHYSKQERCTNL
T1 sequence (P81908 whole entry): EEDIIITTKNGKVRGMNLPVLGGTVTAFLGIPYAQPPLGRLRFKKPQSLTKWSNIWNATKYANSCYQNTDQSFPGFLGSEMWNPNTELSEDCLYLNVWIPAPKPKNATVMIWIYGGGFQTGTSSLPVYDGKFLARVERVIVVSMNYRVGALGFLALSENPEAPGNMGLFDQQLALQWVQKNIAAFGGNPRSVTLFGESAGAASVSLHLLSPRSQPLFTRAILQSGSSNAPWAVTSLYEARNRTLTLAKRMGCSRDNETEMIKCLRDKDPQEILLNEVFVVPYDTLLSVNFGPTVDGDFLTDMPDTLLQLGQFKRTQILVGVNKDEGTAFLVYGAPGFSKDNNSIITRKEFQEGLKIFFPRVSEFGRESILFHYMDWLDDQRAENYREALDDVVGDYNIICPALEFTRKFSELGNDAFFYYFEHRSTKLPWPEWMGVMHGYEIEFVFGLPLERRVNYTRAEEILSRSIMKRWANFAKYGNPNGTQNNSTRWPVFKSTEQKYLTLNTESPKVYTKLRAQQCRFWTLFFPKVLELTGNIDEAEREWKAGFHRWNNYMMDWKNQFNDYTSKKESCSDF
T5 sequence (O42275 24-633): as the sequence (O42275 24-633) above
T3 sequence (O42275 24-633): as above
T6 sequence (P81908 whole entry): as the sequence (P81908 whole entry) above
T4 sequence (P81908 whole entry): as above

SMILES	Enhancement of BuChE inhibition compared to parent 3k [1]	Selectivity AChE/BuChE [2]	IC50 [3] [µM]	Selectivity AChE/BuChE ([4]; SI = IC50 for AChE/IC50 for BuChE, SI lower than 1 means selectivity for AChE)	IC50 ([4]; mean ± SD, n = three experiments, read-out: IC50 (EeAChE)) [µM]	IC50 ([1]; mean ± SD, n = three experiments, read-out: IC50 (EqBuChE))	Improvement of activity against BuChE compared to phosphate 5a ([1]; phosphite 5c vs phosphate 5a) [times]	Mechanism of inhibition (AChE) [5]	Mechanism of inhibition (BuChE) [6]	Type of inhibition (AChE) [7]	Type of inhibition (BuChE) [8]
CCOP(=O)(OCC)Oc1cc(Cl)ccc1C(=O)Nc1ccc(C(F)(F)F)cc1 [Compound 5a]	up to 20.3 times	8.77	9.84 ± 0.06								
CCOP(OCC)Oc1cc(Cl)ccc1C(=O)Nc1ccc(C(F)(F)F)cc1 [Compound 5c, 5-Chloro-2-{[4-(trifluoromethyl)phenyl]carbamoyl}phenyl diethyl phosphite]	84.2 times			28.00	66.4 ± 1.14	2.4 µM and 2.37 µM	4.2	pseudo-irreversible inhibitor; also recorded: pseudo-irreversible inhibition	pseudo-irreversible inhibitor; also recorded: pseudo-irreversible inhibition	mixed inhibition; also recorded: mixed inhibitory mechanism	mixed inhibition; also recorded: mixed inhibitory mechanism

From article PMC6920847, “2-Hydroxy-N-phenylbenzamides and Their Esters Inhibit Acetylcholinesterase and Butyrylcholinesterase” (Biomolecules, 2019)
